Source: US11857551B1, “Methods for the prevention and treatment of hearing loss” (Ting Therapeutics LLC, priority 2020, dated 2024)
Where a name gives a salt, the structure may show the parent alone.

Legend:
HEI-OC1 cells = assay: Caspase-Glo 3/7 assay in cisplatin-treated HEI-OC1 cells; conditions: for activity at 13.3 µM / activity at 0.165 µM / activity at 40 µM: Mus musculus, HEI-OC1, 19 h, read-out: caspase activity reached; for caspase activity reached: normalized to cisplatin-only and media-only controls; for IC50: read-out: calculated IC50 (percent protection dose response, caspase 3/7), HEI-OC1 cells, 1 h pretreatment, 19 h co-incubation
Procedure: Cells were seeded at 8,000 cells/well in 96 well plates and left to attach overnight. […] The cells were co-incubated with cisplatin and drug candidates for an additional 19 hours prior to Caspase-Glo 3/7 assay (Promega, Madison, WI) as previously shown. […] The luminescence detection representing caspase activity in each well was obtained using a Cytation Hybrid Multi-Mode Reader (Biotek, Winooski, VT, USA). The percent protection of the cells was calculated using caspase 3/7 readouts and the following formula:
Caspase activity was measured using Caspase-Glo 3/7 assay and then the results were calculated as percentage of protection as an indicator of cell survival/viability. Percent protection for each compound at the tested dosages were then plotted to show dose response curves, and IC50s were calculated.

zebrafish hair cells = assay: Excitotoxic hair cell damage in zebrafish (FIG. 4C); format: in vivo; conditions: P<0.05, one-way ANOVA
From the text: (*P<0.05, one-way ANOVA.)

[1] = tested on: zebrafish HCs (lateral-line neuromasts); assay: Cisplatin ototoxicity in zebrafish, neuromast hair cell count
cancer patients = conditions: cisplatin chemotherapy; cited from earlier work
[2] = tested on: patients who received cisplatin chemotherapy; conditions: cited from earlier work
[3] = 0.002, 0.018, 0.165, 1.48, 13.3 μM for 1 hour, then co-incubation with 400 μM cisplatin for 4 hours

## O=c1[nH]cc(F)c(=O)[nH]1 [5-fluorouracil]
HEI-OC1 cells
  activity at 13.3 µM: ~30%
Zebrafish hair cells
  protection of hair cells from excitotoxic damage: protect hair cells from excitotoxic damage
[1]; [3]
  protection against cisplatin ototoxicity (CIHL) in zebrafish: showed protection against CIHL

## Sc1ncnc2nc[nH]c12 [6 mercaptopurine]
HEI-OC1 cells
  activity at 0.165 µM: ~70%
[1]; [3]
  protection against cisplatin ototoxicity (CIHL) in zebrafish: showed protection against CIHL

## N.N.[Cl][Pt][Cl] [Cisplatin]
Cancer patients
  permanent hearing loss, share of treated cancer patients: 40-60%

## CCCCC1(C2CCCC2)Cc2cc(OCCCC(=O)O)c(Cl)c(Cl)c2C1=O (stereo not drawn) [DCPIB]
HEI-OC1 cells; dosage ~4.4 μM, cisplatin 50 μM
  caspase activity reached: 0%
HEI-OC1 cells; cisplatin 50 μM
  IC50: 3.1 µM
[1]; [3]
  protection against cisplatin ototoxicity (CIHL) in zebrafish: showed protection against CIHL

## O=C(Nc1ccc([N+](=O)[O-])cc1Cl)c1cc(Cl)ccc1O [Niclosamide]
HEI-OC1 cells; dose 4.4 μM, cisplatin 50 μM, n=3 wells
  caspase-3/7 activity versus control cells (in words): reduce caspase activity to comparable levels as control cells
[1]; pretreated with 0.002 μM, n=5 to 8 per group
  cisplatin damage in zebrafish HCs at SO3 and O1-2 neuromasts: significantly reduced Cisplatin damage

## O=S([O-])([O-])=S.[Na+].[Na+] [Sodium thiosulfate (STS), Sodium thiosulfate]
[2]; patients with other cancers
  protecting cisplatin-induced hearing loss (CIHL): ineffective
[2]; pediatric patients with localized hepatoblastoma who received cisplatin chemotherapy
  protecting hearing: effective

## CC[C@@]1(O)C(=O)OCc2c1cc1n(c2=O)Cc2cc3ccccc3nc2-1 [camptothecin]
HEI-OC1 cells
  activity at 13.3 µM: ~80%
[1]; [3]
  protection against cisplatin ototoxicity (CIHL) in zebrafish: showed protection against CIHL

## C[C@H](CS)C(=O)N1CCC[C@H]1C(=O)O [captopril]
HEI-OC1 cells
  activity at 0.165 µM: ~85%
[1]; [3]
  protection against cisplatin ototoxicity (CIHL) in zebrafish: showed protection against CIHL

## CN1C(=O)[C@@]23C[C@]4([C@]56C[C@@]78SS[C@@](CO)(C(=O)N7[C@H]5Nc5ccccc56)N(C)C8=O)c5ccccc5N[C@@H]4N2C(=O)[C@]1(CO)SS3 [chaetocin]
HEI-OC1 cells
  activity at 13.3 µM: 0%

## OCC(S)CS (stereo not drawn) [dimercaptopropanol]
HEI-OC1 cells; dosage ~40 μM, cisplatin 50 μM
  caspase activity reached: 0%
HEI-OC1 cells; cisplatin 50 μM
  IC50: ~15 µM
[1]; [3]
  protection against cisplatin ototoxicity (CIHL) in zebrafish: showed protection against CIHL

## CO[C@H]1C[C@@H]2CC[C@@H](C)[C@@](O)(O2)C(=O)C(=O)N2CCCC[C@H]2C(=O)O[C@H]([C@H](C)C[C@@H]2CC[C@@H](OCCO)[C@H](OC)C2)CC(=O)[C@H](C)/C=C(\C)[C@@H](O)[C@@H](OC)C(=O)[C@H](C)C[C@H](C)/C=C/C=C/C=C/1C [everolimus]
HEI-OC1 cells
  activity at 13.3 µM: 0%
[1]; [3]
  protection against cisplatin ototoxicity (CIHL) in zebrafish: showed protection against CIHL

## CC(Nc1nc(N2CCCC2)nc2ccccc12)c1ccccc1 (stereo not drawn) [importazole]
HEI-OC1 cells; dosage ~40 μM, cisplatin 50 μM
  caspase activity reached: 0%
HEI-OC1 cells; cisplatin 50 μM
  IC50: 6.52 µM
Zebrafish hair cells
  protection of hair cells from excitotoxic damage: protect hair cells from excitotoxic damage
[1]; [3]
  protection against cisplatin ototoxicity (CIHL) in zebrafish: showed protection against CIHL

## CCc1c2c(nc3ccc(OC(=O)N4CCC(N5CCCCC5)CC4)cc13)-c1cc3c(c(=O)n1C2)COC(=O)[C@]3(O)CC [irinotecan]
HEI-OC1 cells
  activity at 13.3 µM: ~60%
[1]; [3]
  protection against cisplatin ototoxicity (CIHL) in zebrafish: showed protection against CIHL

## CCCC[C@@H](C)/C=C(C)/C=C(\C)C(=O)NC1=C[C@@](O)(/C=C/C=C/C=C/C(=O)NC2=C(O)CCC2=O)[C@@H]2O[C@@H]2C1=O [manumycin A]
HEI-OC1 cells; dosage ~1.48 μM, cisplatin 50 μM
  caspase activity reached: ~35%
HEI-OC1 cells; cisplatin 50 μM
  IC50: 11.7 µM
[1]; [3]
  protection against cisplatin ototoxicity (CIHL) in zebrafish: showed protection against CIHL

## CC(=O)c1c(C)c2cnc(Nc3ccc(N4CCNCC4)cn3)nc2n(C2CCCC2)c1=O [palbociclib]
HEI-OC1 cells
  activity at 40 µM: ~80%

## C1CCC(C(CC2CCCCN2)C2CCCCC2)CC1 (stereo not drawn) [perhexiline maleate]
HEI-OC1 cells
  activity at 40 µM: 0%
[1]; [3]
  protection against cisplatin ototoxicity (CIHL) in zebrafish: showed protection against CIHL

## CCCc1cc(C(N)=S)ccn1 [prothionamide]
HEI-OC1 cells
  activity at 40 µM: ~50%
[1]; [3]
  protection against cisplatin ototoxicity (CIHL) in zebrafish: showed protection against CIHL

## C[C@@H]1C[C@H]2O[C@@H]2/C=C\C=C\C(=O)Cc2c(Cl)c(O)cc(O)c2C(=O)O1 [radicicol]
HEI-OC1 cells
  activity at 13.3 µM: 0%
[1]; [3]
  protection against cisplatin ototoxicity (CIHL) in zebrafish: showed protection against CIHL

## Cc1nc2ccc(CN(C)c3ccc(C(=O)N[C@@H](CCC(=O)O)C(=O)O)s3)cc2c(=O)[nH]1 [raltitrexed]
HEI-OC1 cells
  activity at 40 µM: ~20%
[1]; [3]
  protection against cisplatin ototoxicity (CIHL) in zebrafish: showed protection against CIHL

## CC(=O)c1c(O)c(C)c(O)c(Cc2c(O)c3c(c(C(=O)/C=C/c4ccccc4)c2O)OC(C)(C)C=C3)c1O [rottlerin]
HEI-OC1 cells
  activity at 13.3 µM: 0%
[1]; [3]
  protection against cisplatin ototoxicity (CIHL) in zebrafish: showed protection against CIHL

## CC(C(=O)Nc1cccc(/N=C/c2c(O)ccc3ccccc23)c1)c1ccccc1 (stereo not drawn) [salermide]
HEI-OC1 cells
  activity at 40 µM: 0%
[1]; [3]
  protection against cisplatin ototoxicity (CIHL) in zebrafish: showed protection against CIHL

## O=C(O)[C@@H](S)[C@@H](S)C(=O)O [succimer]
HEI-OC1 cells
  activity at 40 µM: ~80%
[1]; [3]
  protection against cisplatin ototoxicity (CIHL) in zebrafish: showed protection against CIHL

## CSc1ccc2c(c1)N(CCC1CCCCN1C)c1ccccc1S2 (stereo not drawn) [thioridazine]
HEI-OC1 cells
  activity at 40 µM: 0%
[1]; zebrafish, in vivo
  protection against cisplatin ototoxicity (CIHL) in zebrafish: showed protection against CIHL

## CC(S)C(=O)NCC(=O)O (stereo not drawn) [tiopronin]
[1]; [3]
  protection against cisplatin ototoxicity (CIHL) in zebrafish: showed protection against CIHL

## COC[C@H]1OC(=O)c2coc3c2[C@@]1(C)C1=C(C3=O)[C@@H]2CCC(=O)[C@@]2(C)C[C@H]1OC(C)=O [wortmannin]
HEI-OC1 cells
  activity at 40 µM: ~50%
